Results published in publication PMC6572135, “N-Methyl-D-glucamine–Calix[4]resorcinarene Conjugates: Self-Assembly and Biological Properties” (Molecules, 2019).

Experiment: Tensiometry (surface tension, Du-Noüy ring), critical aggregation concentration
Assay type: physicochemical
Conditions: 25 °C
Procedure: In the next step of the study of GCR self-assembly the tensiometry method was used. Surface tension decreases with increasing GCR-1 concentration, but above the CAC (15 mM) the slope angle of the dependence changes (Figure 2). […] Concentration point of 15 mM, at which occurs inflection of surface tension dependence, corresponds to CAC that is in good agreement with conductometric value. The tensiometric CAC value of GCR-2 (3.3 mM) is slightly different from the conductometric value (7.9 mM, Table 1). The tensiometry method is well known to fix the changes of the mutual disposition of the molecules at the water–air interface, whereas conductometry measures the number and mobility of ions in the bulk solution. The CAC values obtained for GCR-2 are lower compared to those for GCR-1. The improved ability to aggregation of GCR-2 in comparison with GCR-1 may be due higher hydrophobicity of GCR-2. The relations between the surface tension and the concentration of macrocycle solution were illustrated in Figure 8. […] The first inflection point was determined after a concentration of 10 mM, which can be correlated with the CAC value in the aqueous environment. […] The turning point of the tensiometric curve for GCR-2 can be determined as 3.3 mM that is same as in water. […]

## CC1c2cc(c(O)c(CN(C)C[C@@H](O)[C@H](O)[C@@H](O)[C@@H](O)CO)c2O)C(C)c2cc(c(O)c(CN(C)C[C@@H](O)[C@H](O)[C@@H](O)[C@@H](O)CO)c2O)C(C)c2cc(c(O)c(CN(C)C[C@@H](O)[C@H](O)[C@@H](O)[C@@H](O)CO)c2O)C(C)c2cc1c(O)c(CN(C)C[C@@H](O)[C@H](O)[C@@H](O)[C@@H](O)CO)c2O (stereo partly drawn) [GCR-2, N-methyl-D-glucaminemethyl methylcalix[4]resorcinarene]
50% DMSO–50% water
  First inflection / turning point of the tensiometric curve: 3.3 mM
Water solution, GCR-2 in the presence of two-fold excess of MG
  CAC, tensiometry: 3.3 mM
